In patent US20110053849A1 (priority 2006, published 2011):

Assays:
human cytokines = test: Bioplex human monocyte cytokine assay; format: cell-based; settings: E. coli LPS + pep12 (10 µg or 100 υg)
Protocol: This assay was performed to determine the effectiveness of the peptide of the present invention [pep12: SEQ ID NO.: 1] to inhibit various human cytokines. The assay performed was a human monocyte assay well known to those practiced in the art. The kit used here (trade name Bioplex) was supplied by Bio-Rad (Hercules, Calif.). Other commercially available assays are known and suitable for use in the assay described here.
Bar (1) is the carrier solution alone (chariot alone); bar (2) is E. coli LPS stimulant; bar (3) is E. coli LPS+pepSC (scramble peptide); bar (4) is E. coli LPS+pep12 (10 υg); bar (5) is E. coli LPS+pep12 (100 υg). The cytokines tested include Human (Hu) IL-2, Hu Il-5, Hu Il-7, Hu Il-12 Hu Eotaxin, Hu Il-13, Hu-PDGF-β, Hu IL-1β, Hu-15, Hu IFN-γ, Hu IP-10, Hu IL-6, Hu RANTES, Hu TNF-α, Hu Il-1ra and Hu VEGF.

LITAF promoter = test: Luciferase reporter assay of LITAF promoter activity in p53-null H1299 cells; format: cell-based, human; settings: for Luciferase activity with peptide alone: peptide alone without pGLP700, FIG. 7 #5 and #6
Protocol: Luciferase assay. […] Cells were then incubated overnight in appropriate media (DMEM or RPMI 1640)+10% FBS at 37° C., in a humidified atmosphere containing 5% CO2. The β-galactosidase gene was included in all transfections. Cells were harvested and the luciferase activity of each lysate was measured (Turner Designs luminometer model TD-20/20) using a commercial kit (luciferase reporter assay system, Promega) according to the protocol provided by the manufacturer. Finally, the data were normalized to β-galactosidase expression.
The promoter activity of pGLP700 alone was assigned the maximal value of 100%. […] Deletions, indicated by ̂, correspond to aa 101-167 in construct A12, aa 167-234 in B1, aa 235-300 in C6 and aa 156-178 in D10. Construct p53LFB12 contained only 7 aa (KQSQHMT [SEQ ID NO: 1]) from the region (aa 164-170).
The proteins extracted from each transfection of construct plus pGLP700 compared to the transfection of pGLP700 alone in p53-null H1299 cells were measured by luciferase assay. Triplicate assays were performed. […] Construct C6, containing aa 167 and its flanking sequences, reduced LITAF promoter activity to 22% of control even though it lacked aa 235-300.
Furthermore, short peptides (pep12) that contain 7 residues (aa 164-170) (KQSQHMT [SEQ ID NO: 1]) corresponding to p53LFB12 and another peptide (pepSC) with reverse sequence of pep12 as a negative control, were synthesized and analyzed using the luciferase assay. Cultures of p53-null H1299 cells (5×10^6) were transfected with pGLP700 (#2-4, #7-12), pGLP550 (#13 and 14) or pGLP500 (#15 and 16) plus p53LFB12 (#4) or plus 12REV (#3) as control using Lipofactamine 2000 (Invitrogen) for 3 hours, washed with PBS and further transfected with peptide, 10 μg/ml (#10, 12, 14 and 16), then cells were incubated in appropriate medium at 37° C. overnight. Luciferase activities of the lysates from each culture of treated cells were measured. The extracts from untreated (#1), pepSC alone (#5), pep12 alone (#6), pGLP700 alone (#2 and 11, pGLP550 alone (#13) or pGLP500 alone (#15) were used as controls. Triplicate assays were performed.

LITAF = test: Western blot of LPS-induced LITAF gene expression in human monocytes; format: cell-based; settings: 0.1 μg/ml E. coli LPS 3 hours, then peptide 16 hours, FIG. 8B lane 5
Protocol: Western blot analysis. […] Cells were then incubated overnight in RPMI 1640 medium with 10% FBS at 37° C., in a humidified atmosphere containing 5% CO2. The proteins from the treated cells were extracted with lysis buffer (Promega) plus a cocktail of […] (Sigma) following the manufacturer's instructions and suspended in SDS sample buffer, heated at 95° C. for 5 min, then applied to SDS-polyacrylamide gels and detected by Western blotting.
(§1) To further examine the effects of pep12 on LPS-induced LITAF gene expression and LITAF-dependent TNF-α production, analyses of Western blot and ELISA were performed. Human monocytes (1×10^6) were stimulated with 0.1 μg/ml E. coli LPS for 3 hours and washed with PBS prior to treatment with peptides for 16 hours with either pep12 (#5) or pepSC as control (#4) using a Chariot kit (Active motif, Carlsbad, Calif.) or transfected with no DNA (#1) or with pGLP700 DNA (#2) as negative controls or with p53-1 DNA (#3) as a positive control. The cells were incubated in appropriate medium at 37° C., 5% CO2 overnight. The supernatants from cell cultures were measured by ELISA (Abraxis, Warminster, Pa.) and the extracts were detected by Western blot with antibodies against LITAF and actin (as a control).

TNF-α = test: ELISA of LPS-induced TNF-α production in human monocytes; format: cell-based; settings: 0.1 μg/ml E. coli LPS 3 hours, then peptide 16 hours, FIG. 8A
Protocol: ELISA. Human monocytes (1×10^6) were stimulated with 0.1 μg/ml E. coli LPS for 3 hrs, washed with PBS, then further treated with peptides by Chariot kit (Active Motif, Carlsbad, Calif.). Cells were then incubated overnight in RPMI 1640 medium supplemented with 10% FBS at 37° C., in a humidified atmosphere containing 5% CO2. Culture supernatants were harvested and centrifuged at 1,500×g to remove cell debris, then concentrations of human TNF-α in the supernatant of each treated or untreated control cell condition were measured by ELISA (Abraxis, Warminster, Pa.). The ELISA immunoreactivity was quantified using a VerSaDoc Imaging System (BIO-RAD) and graphed.
as §1, with “The cells were incubated in appropriate medium at 37° C., 5% CO2 overnight.” left out

[1] = peptide 10 μg/ml plus pGLP700, FIG. 7 #7 and #10

| Substance | Concentration of active cytokine: Hu IL-13 (human cytokines) | Concentration of active cytokine: Hu PDGF-β (human cytokines) | Concentration of active cytokine: Hu RANTES (human cytokines) | Concentration of active cytokine: IL-2, IL-5, IL-7, IL-12, Eotaxin, IL-1β, IL-15, IFN-γ, IP-10, IL-6, TNF-α, IL-1ra, VEGF (human cytokines; FIGS. 9A-9C) | LITAF promoter activity (LITAF promoter; pep12 10 μg/ml plus pGLP500, FIG. 7 #16 vs #15) | LITAF promoter activity, % of control (LITAF promoter; pep12 10 μg/ml plus pGLP550, FIG. 7 #14 vs #13) | LITAF promoter activity, % of control (LITAF promoter; pep12 10 μg/ml plus pGLP700, FIG. 7 #12 vs #11) | LITAF promoter activity (untreated pGLP700 #2 = 100%) (LITAF promoter; peptide 0.1 μg/ml plus pGLP700, FIG. 7 #8) | LITAF promoter activity (untreated pGLP700 #2 = 100%) (LITAF promoter; [1]) | Luciferase activity with peptide alone (LITAF promoter) | LITAF promoter activity (untreated pGLP700 #2 = 100%) (LITAF promoter; peptide plus pGLP700, FIG. 7 #9, concentration not clearly printed) | LPS-induced LITAF gene expression (LITAF) | LPS-induced TNF-α production, % of control (TNF-α) |
| --- | --- | --- | --- | --- | --- | --- | --- | --- | --- | --- | --- | --- | --- |
| KQSQHMT [pep12] | only minor reductions | only minor reductions | only minor reductions | significant reduction | did not affect LITAF promoter activity | 23% | 15% | 66% | 15% | 2.3% | 40% | inhibition of LPS-induced LITAF gene expression | ≤ 70% |
| SKMQQTH [pepSC, reference compound] | – | – | – | – | – | – | – | – | 95% | 1.5% | – | – | could not affect LPS-induced TNF-α secretion |
